Literature values, collected in publication PMC1892056, “Barusiban suppresses oxytocin-induced preterm labour in non-human primates” (BMC Pregnancy and Childbirth, 2007).
Values joined by “and” are separate entries in the source; they are usually repeats but may differ in a detail not shown here. Equal values may be shown once. Read-outs that look alike come from different tables or passages of the source.

What was measured:
[1] = test system: pregnant cynomolgus monkeys; set-up: method as in PMID 16914691; details: for Treatment days until delivery / end of treatment: continuous IV infusion from ca. GD 141, daily OT challenge, barusiban group delivered after the end of treatment; for Basal overall IUP before the daily OT challenges compared to control: during continuous barusiban or fenoterol treatment; for Day of delivery: gestational day, barusiban 150 μg kg^-1 h^-1 or fenoterol 3 μg kg^-1 h^-1 continuous infusion from ca. GD 141, daily OT challenge
From the text: Background Preterm labour (PTL) is a major cause of neonatal mortality and morbidity, and oxytocin (OT) antagonists are potential tocolytics. Atosiban (TRACTOCILE) is a mixed vasopressin V1A/OT antagonist registered for acute treatment of PTL in Europe. […] Barusiban is a selective OT antagonist which has reached clinical development. A monkey model with OT-induced PTL was developed to compare barusiban and atosiban. In addition, the feasibility for long-term treatment of PTL with barusiban was explored.

[2] = test system: pregnant cynomolgus monkeys; details: for Potency (IC50): calculated PK/PD potency (plasma concentration) for inhibition of OT-induced IUP, IV bolus or infusion; for Duration of action / Efficacy (decrease in IUP) / Onset of action: overall results for IV high- or low-dose bolus or infusion; for Duration of effect on IUP after high-dose infusion: two-hour high-dose IV infusion, barusiban 150 μg kg^-1 h^-1, atosiban 250 μg kg^-1 h^-1
From the text: Table 1 Summary of barusiban and atosiban PK/PD characteristics | column: Barusiban; Atosiban || Background Preterm labour (PTL) is a major cause of neonatal mortality and morbidity, and oxytocin (OT) antagonists are potential tocolytics. Atosiban (TRACTOCILE) is a mixed vasopressin V1A/OT antagonist registered for acute treatment of PTL in Europe. Other off-label drugs have serious side effects. Barusiban is a selective OT antagonist which has reached clinical development. A monkey model with OT-induced PTL was developed to compare barusiban and atosiban. In addition, the feasibility for long-term treatment of PTL with barusiban was explored. Methods Conscious pregnant cynomolgus monkeys ... || Following induction of stable contractions by OT, barusiban or atosiban were administered as high- or low-dose bolus or infusion. […] However, barusiban's duration of action was generally longer than 13–15 hours, while atosiban's effect ceased within 1.5–3 hours (Table 1). The calculated potency of barusiban was about four times higher than the potency of atosiban. || (+ 1 further places)

[3] = pregnant cynomolgus monkeys, IV high- or low-dose bolus or infusion, plasma, LC-MS/MS
From the text: Table 1 Summary of barusiban and atosiban PK/PD characteristics | column: Barusiban; Atosiban

human cloned OT receptor = details: selectivity OT receptor over V1A receptor
From the text: Barusiban is a new long-acting OT receptor antagonist developed for PTL. It is a cyclic heptapeptide and an analogue of endogenous OT designed for longer duration of action. This could provide the convenience of less frequent administration in the clinic. Barusiban has approximately 300-fold greater affinity for the human cloned OT receptor than for the V1A receptor, whereas atosiban binds well to both receptors. […] It has reached phase II of clinical developmen ...

[4] = test system: pregnant cynomolgus monkeys
From the text: Background Preterm labour (PTL) is a major cause of neonatal mortality and morbidity, and oxytocin (OT) antagonists are potential tocolytics. Atosiban (TRACTOCILE) is a mixed vasopressin V1A/OT antagonist registered for acute treatment of PTL in Europe. Other off-label drugs have serious side effects. Barusiban is a selective OT antagonist which has reached clinical development. A monkey model with OT-induced PTL was developed to compare barusiban and atosiban. In addition, the feasibility for long-term treatment of PTL with barusiban was explored. Methods Conscious pregnant cynomolgus monkeys ... || Figure 2 Oxytocin-induced uterine contractions in cynomolgus monkeys. Individual infusion of 5–90 mU OT kg^-1 h^-1 induced stable uterine contractions of about 15–40 mmHg. No short- or long-term desensitisation of OT-induced contractions was observed. On the background of these stable OT-induced contractions, different tocolytics have been evaluated in terms of their PK/PD characteristics. Here two monkeys were infused in parallel for about 11 hours during the night. The switch-off the lights in the evening (06:00 PM) and switch-on the lights (06:00 AM) is labelled by respective symbols.

[5] = pregnant cynomolgus monkeys, OT-induced contractions

Row | Compound | Treatment days until delivery / end of treatment [1] | Basal overall IUP before the daily OT challenges compared to control [1] | Day of delivery [1] [days] | Potency (IC50) [2] [µg/mL] | Duration of action [2, 5] [h] | Onset of action [2, 5] [h] | Duration of effect on IUP after high-dose infusion ([2]; n = 3) | Clearance [3] [mL/min/kg] | Distribution [3] [mL/kg] | Half-life [3] [min] | also measured
1 | CC(Cc1ccc(O)cc1)NCC(O)c1cc(O)cc(O)c1 (stereo not drawn) [fenoterol, reference compound] | ~17 days | unchanged | ~154 | – | – | – | – | – | – | – | –
2 | Atosiban [reference compound] | – | – | – | 0.0474 | 1 to 3 | ≤0.5 to 1.0 | 3 h | 8.98 to 15.6 | 359 to 640 | 27.6 to 39.6 | Efficacy (decrease in IUP) [2, 5]: ≤96%; Efficacy (decrease in IUP) ([2]; pregnant cynomolgus monkeys, OT-induced contractions, listed as atosiban): > 95%
3 | Barusiban | approximately 23 days | unchanged | ~163 | 0.0127 | > 13 to 15 | ≤0.5 to 1.5 | more than 14 h | 0.417 to 1.1 | 70 to 159 | 87.6 to 154 | Potency relative to atosiban ([2]; calculated potency of barusiban versus atosiban, OT-induced contractions): about four; Reversibility of inhibition of contractions ([2]; high-dose barusiban bolus, then escalating high-dose OT rescue infusion (133–2000 mU kg^-1 h^-1)): reversible with high-dose OT; Tolerability ([2]; pregnant cynomolgus monkeys): well tolerated; Duration of action ([2]; pregnant cynomolgus monkeys, OT-induced contractions, listed as barusiban): 13 to 15 h and > 13 h; Time to decrease in IUP compared with OT control levels ([2]; two hour high-dose IV infusion of barusiban at 150 μg kg^-1 h^-1, n = 3): ≤ 0.5 h; Affinity for the human cloned OT receptor relative to the V1A receptor (human cloned OT receptor): approximately 300 fold; Days with statistically lower IUP than the control group ([1]; barusiban 150 μg kg^-1 h^-1 continuous IV infusion, daily 3–6 h OT infusion): 8/17; Rise in overall IUP during OT infusion ([1]; barusiban 150 μg kg^-1 h^-1 continuous infusion, OT control about fourfold increase): 30%; Days with statistically lower IUP than the fenoterol group ([1]; barusiban 150 μg kg^-1 h^-1 versus fenoterol 3 μg kg^-1 h^-1, continuous IV infusion, daily 3–6 h OT infusion): 11/17
4 | oxytocin [OT] | – | – | – | – | – | – | – | – | – | – | Desensitisation of OT-induced contractions ([4]; OT infusion 5–90 mU kg^-1 h^-1, short- and long-term): no OT-related desensitization occurred; Induced uterine contractions (IUP) ([4]; individual OT infusions at 5–90 mU kg^-1 h^-1): 15–40 mmHg
